Several values for one entry are separate records, joined by “and”; a condition that tells them apart may be missing. Equal values may be shown once. ± gives the uncertainty stated by the source.
Assay: xn = mol fraction of the nth substance listed
Settings: 298.15 K, 101.3 kPa

## CCCCCC[n+]1ccn(C)c1.[Cl-] + OC[C@H]1O[C@@](CO)(O[C@H]2O[C@H](CO)[C@@H](O)[C@H](O)[C@H]2O)[C@@H](O)[C@@H]1O + O
x2 = 0, x1 = 4.23e-06
  electrical conductivity: 0.00276 ± 3e-05 S/m
x2 = 0, x1 = 7.11e-06
  electrical conductivity: 0.00451 ± 5e-05 S/m
x2 = 0, x1 = 1.01e-05
  electrical conductivity: 0.00631 ± 6e-05 S/m
x2 = 0, x1 = 1.293e-05
  electrical conductivity: 0.008 ± 8e-05 S/m
x2 = 0, x1 = 1.551e-05
  electrical conductivity: 0.00953 ± 0.0001 S/m
x2 = 0, x1 = 1.836e-05
  electrical conductivity: 0.01121 ± 0.00011 S/m
x2 = 0, x1 = 2.116e-05
  electrical conductivity: 0.0129 ± 0.00013 S/m
x2 = 0, x1 = 2.393e-05
  electrical conductivity: 0.0145 ± 0.00015 S/m
x2 = 0, x1 = 2.652e-05
  electrical conductivity: 0.016 ± 0.00016 S/m
x2 = 0, x1 = 2.919e-05
  electrical conductivity: 0.0175 ± 0.00018 S/m
x2 = 0.003591, x1 = 8.04e-06
  electrical conductivity: 0.00433 ± 4e-05 S/m
x2 = 0.003591, x1 = 1.174e-05
  electrical conductivity: 0.00611 ± 6e-05 S/m
x2 = 0.003591, x1 = 1.526e-05
  electrical conductivity: 0.00778 ± 8e-05 S/m
x2 = 0.003591, x1 = 1.864e-05
  electrical conductivity: 0.00936 ± 9e-05 S/m
x2 = 0.003591, x1 = 2.202e-05
  electrical conductivity: 0.0109 ± 0.00011 S/m
x2 = 0.003591, x1 = 2.53e-05
  electrical conductivity: 0.01242 ± 0.00012 S/m
x2 = 0.003591, x1 = 2.853e-05
  electrical conductivity: 0.0139 ± 0.00014 S/m
x2 = 0.003591, x1 = 3.177e-05
  electrical conductivity: 0.01532 ± 0.00015 S/m
x2 = 0.003591, x1 = 3.49e-05
  electrical conductivity: 0.0167 ± 0.00017 S/m
x2 = 0.003591, x1 = 3.779e-05
  electrical conductivity: 0.018 ± 0.00018 S/m
x2 = 0.007156, x1 = 6.71e-06
  electrical conductivity: 0.00314 ± 3e-05 S/m
x2 = 0.007156, x1 = 1.012e-05
  electrical conductivity: 0.00459 ± 5e-05 S/m
x2 = 0.007156, x1 = 1.35e-05
  electrical conductivity: 0.00603 ± 6e-05 S/m
x2 = 0.007156, x1 = 1.699e-05
  electrical conductivity: 0.00749 ± 8e-05 S/m
x2 = 0.007156, x1 = 2.028e-05
  electrical conductivity: 0.00888 ± 9e-05 S/m
x2 = 0.007156, x1 = 2.319e-05
  electrical conductivity: 0.0101 ± 0.0001 S/m
x2 = 0.007156, x1 = 2.608e-05
  electrical conductivity: 0.01131 ± 0.00011 S/m
x2 = 0.007156, x1 = 2.915e-05
  electrical conductivity: 0.0126 ± 0.00013 S/m
x2 = 0.007156, x1 = 3.212e-05
  electrical conductivity: 0.0138 ± 0.00014 S/m
x2 = 0.007156, x1 = 3.545e-05
  electrical conductivity: 0.01517 ± 0.00015 S/m
x2 = 0.0107, x1 = 7.99e-06
  electrical conductivity: 0.00313 ± 3e-05 S/m
x2 = 0.0107, x1 = 1.176e-05
  electrical conductivity: 0.00442 ± 4e-05 S/m
x2 = 0.0107, x1 = 1.521e-05
  electrical conductivity: 0.00559 ± 6e-05 S/m
x2 = 0.0107, x1 = 1.87e-05
  electrical conductivity: 0.00676 ± 7e-05 S/m
x2 = 0.0107, x1 = 2.207e-05
  electrical conductivity: 0.00787 ± 8e-05 S/m
x2 = 0.0107, x1 = 2.533e-05
  electrical conductivity: 0.00894 ± 9e-05 S/m
x2 = 0.0107, x1 = 2.851e-05
  electrical conductivity: 0.00998 ± 0.0001 S/m
x2 = 0.0107, x1 = 3.135e-05
  electrical conductivity: 0.0109 ± 0.00011 S/m
x2 = 0.0107, x1 = 3.442e-05
  electrical conductivity: 0.0119 ± 0.00012 S/m
x2 = 0.0107, x1 = 3.724e-05
  electrical conductivity: 0.0128 ± 0.00013 S/m
x2 = 0.01421, x1 = 1.053e-05
  electrical conductivity: 0.00345 ± 4e-05 S/m
x2 = 0.01421, x1 = 1.542e-05
  electrical conductivity: 0.00495 ± 5e-05 S/m
x2 = 0.01421, x1 = 2.022e-05
  electrical conductivity: 0.00641 ± 6e-05 S/m
x2 = 0.01421, x1 = 2.485e-05
  electrical conductivity: 0.00781 ± 8e-05 S/m
x2 = 0.01421, x1 = 2.901e-05
  electrical conductivity: 0.00905 ± 9e-05 S/m
x2 = 0.01421, x1 = 3.286e-05
  electrical conductivity: 0.0102 ± 0.0001 S/m
x2 = 0.01421, x1 = 3.675e-05
  electrical conductivity: 0.01135 ± 0.00011 S/m
x2 = 0.01421, x1 = 4.055e-05
  electrical conductivity: 0.0125 ± 0.00013 S/m
x2 = 0.01421, x1 = 4.424e-05
  electrical conductivity: 0.0136 ± 0.00014 S/m
x2 = 0.01421, x1 = 4.811e-05
  electrical conductivity: 0.0147 ± 0.00015 S/m
x2 = 0.0177, x1 = 9.25e-06
  electrical conductivity: 0.00262 ± 3e-05 S/m
x2 = 0.0177, x1 = 1.338e-05
  electrical conductivity: 0.0037 ± 4e-05 S/m
x2 = 0.0177, x1 = 1.736e-05
  electrical conductivity: 0.00474 ± 5e-05 S/m
x2 = 0.0177, x1 = 2.112e-05
  electrical conductivity: 0.00571 ± 6e-05 S/m
x2 = 0.0177, x1 = 2.447e-05
  electrical conductivity: 0.00658 ± 7e-05 S/m
x2 = 0.0177, x1 = 2.813e-05
  electrical conductivity: 0.00751 ± 8e-05 S/m
x2 = 0.0177, x1 = 3.139e-05
  electrical conductivity: 0.00835 ± 8e-05 S/m
x2 = 0.0177, x1 = 3.466e-05
  electrical conductivity: 0.00918 ± 9e-05 S/m
x2 = 0.0177, x1 = 3.742e-05
  electrical conductivity: 0.00987 ± 0.0001 S/m
x2 = 0.0177, x1 = 4.046e-05
  electrical conductivity: 0.0106 ± 0.00011 S/m
x2 = 0.02116, x3 = 0.9787
  electrical conductivity: 0.01832 ± 0.00018 S/m
x2 = 0.02116, x3 = 0.9788
  electrical conductivity: 0.014 S/m and 0.0154 S/m and 0.0169 S/m

From the CheMixHub ionic liquid set
